Source: US20260193278A1, “NOVEL PHTHALOCYANINE COMPOUNDS AND THE USE THEREOF FOR THE TREATMENT OF DISEASES” (RHODES UNIVERSITY, priority 2022, published 2026)

Tests used:
Format in all cases: cell-based
S. aureus = assay: Dark toxicity against S. aureus, concentration study at 0 min (CFU counting); conditions: for log reduction (dark toxicity): 0 min; for Staph log CFU/ml (logarithmic reduction value) / Staph μM (concentration corresponding to the logarithmic reduction): in the dark, at 0 min; for Staph log CFU/ml (logarithmic reduction value): at the concentration of the μM column; for Staph μM (concentration corresponding to the logarithmic reduction): range tested 0-10 μM
Procedure: (§1) 500 μM stock solutions of the samples were prepared in ultra-pure water (5% DMSO) and used at different concentrations in the biological assays.
(§2) Two bacterial strains were used for the PACT studies; S. aureus as a gram-(+) bacterium and E. coli as a gram-(−) negative bacterium. Stock cultures were grown aerobically in 6 mL of nutrient broth incubated at 37° C. on a rotary shaker (~200 rpm) to obtain bacteria cultures. The incubation was maintained until the optical density of the culture at 600 nm was determined to be between 0.6 and 0.8. The resulting bacterial solution was centrifuged to remove the broth, and bacterial cells were washed three times with PBS. The solution of the bacteria was prepared by diluting with PBS to obtain […] bacteria solutions corresponding to ~10^9 and ~10^8 colony forming units (CFU)/mL, respectively.
(§3) The bacteria/photosensitizer mixtures were incubated in an oven equipped with a shaker for 30 min in the dark at 37° C. before plating. 100 μL of solution was taken from the suspension and was immediately inoculated on agar plates to determine the activity at 0 min without treatment. The number of colonies was then counted on each plate after 18 h of incubation at 37° C. Control treatments were performed in the absence of photosensitizer. All experiments were carried out three times. The data for CFU/mL were converted to the logarithmic form.

E. coli = assay: Dark toxicity against E. coli, concentration study at 0 min (CFU counting); conditions: in the dark; for Ecoli log CFU/ml (logarithmic reduction value): at the concentration of the μM column; for Ecoli μM (concentration corresponding to the logarithmic reduction): range tested 0-15 μM
Procedure: as §1, §2, §3

[1] = system: MCF-7 (human breast adenocarcinoma) cells; assay: In vitro dark cytotoxicity, MCF-7 cells (anticancer studies); conditions: MCF-7, dark; for Min. Death conc. / Cell death: 24 h; for Cell death: at the Min. Death conc.
Procedure: MCF-7 (human breast adenocarcinoma) cells were cultured in Dulbecco's modified Eagle's medium-10% fetal bovine serum (DMEM-FBS) and PSA (penicillin/streptomycin/Amphotericin B) at 37° C. in an incubator (5% CO2) in 75 cm^2 vented flasks. The cultures were grown as a monolayer. The growth cells were transferred to well plates by trypsinizing with 0.25% trypsin-EDTA. The Pc stock concentrations were prepared by separately dissolving them in DMSO (1%) and diluting in water and the Pc gradient concentration was prepared by taking known aliquots from the stock and finally made up to marked volume with supplemented media with phenol red.
It was studied from […] both in the dark. 100 μL each of the newly prepared gradient Pcs concentration of 0 μg/mL (control), 5 μg/mL, 10 μg/mL, 20 μg/mL, 40 μg/mL, 60 μg/mL 80 μg/mL, 100 μg/mL and 120 μg/mL were administered on the incubated seeded cells. The 96 well cell culture plates containing the cells and the Pcs were incubated at 37° C. and 5% CO2 in the dark for 24 h. After 24 h treatment, the wells were rinsed with 100 μL DPBS. Cell survival was expressed as percentage of control cells (cells without Pcs). Post treatment cell viability was measured using the cell proliferation […] reagent (WST-1 assay) on a Synergy 2 multi-mode microplate reader (BioTek®) at a wavelength of 450 nm according to the following equation 1.

Structure (SMILES)	destruction of bacteria (FIG. 2) (S. aureus; at 0.5 μM)	log reduction (dark toxicity) (S. aureus; at 0.5-10 μM)	Staph log CFU/ml (logarithmic reduction value) (S. aureus) [log CFU/ml]	Staph μM (concentration corresponding to the logarithmic reduction) (S. aureus) [μM]	Ecoli log CFU/ml (logarithmic reduction value) (E. coli) [log CFU/ml]	Ecoli μM (concentration corresponding to the logarithmic reduction) (E. coli) [μM]	optimal concentration to kill the cancer cells [1] [µM]	Min. Death conc. [1] [µM]	Cell death [1] [%]	cancer cells killed at the optimal concentration [1] [%]	log reduction (dark toxicity) (S. aureus; at 10 μM)
C[n+]1c(-c2ccc(Oc3ccc4c(c3)C3=Nc5c6ccc(Oc7ccc(-c8[nH]c9cc(Cl)cc(Cl)c9[n+]8C)cc7)cc6c6[n]5[Co][n]5c(c7ccc(Oc8ccc(-c9[nH]c%10cc(Cl)cc(Cl)c%10[n+]9C)cc8)cc7c5=NC5=NC(=N6)c6cc(Oc7ccc(-c8[nH]c9cc(Cl)cc(Cl)c9[n+]8C)cc7)ccc65)=NC4=N3)cc2)[nH]c2cc(Cl)cc(Cl)c21.[I-].[I-].[I-].[I-] [Compound 200]	complete destruction	9.63	9.61	0.5	8.79	1	40	40	80.9	80.9	–
C[n+]1c(-c2ccc(Oc3ccc4c(c3)C3=Nc5c6ccc(Oc7ccc(-c8[nH]c9cc(Cl)cc(Cl)c9[n+]8C)cc7)cc6c6[n]5[Cu][n]5c(c7ccc(Oc8ccc(-c9[nH]c%10cc(Cl)cc(Cl)c%10[n+]9C)cc8)cc7c5=NC5=NC(=N6)c6cc(Oc7ccc(-c8[nH]c9cc(Cl)cc(Cl)c9[n+]8C)cc7)ccc65)=NC4=N3)cc2)[nH]c2cc(Cl)cc(Cl)c21.[I-].[I-].[I-].[I-] [Compound 201]	–	–	9.61	8	8.79	12.5	120	120	45.4	45.4	9.63
C[n+]1c(-c2ccc(Oc3ccc4c(c3)C3=Nc5c6ccc(Oc7ccc(-c8[nH]c9cc(Cl)c(Cl)cc9[n+]8C)cc7)cc6c6[n]5[Zn][n]5c(c7ccc(Oc8ccc(-c9[nH]c%10cc(Cl)c(Cl)cc%10[n+]9C)cc8)cc7c5=NC5=NC(=N6)c6cc(Oc7ccc(-c8[nH]c9cc(Cl)c(Cl)cc9[n+]8C)cc7)ccc65)=NC4=N3)cc2)[nH]c2cc(Cl)c(Cl)cc21.[I-].[I-].[I-].[I-] [Compound 207]	–	–	9.31	4	8.79	2.5	–	120	38.3	–	–
C[n+]1c(-c2ccc(Oc3ccc4c(c3)C3=Nc5c6ccc(Oc7ccc(-c8[nH]c9cc(Cl)c(Cl)cc9[n+]8C)cc7)cc6c6[n]5[Co][n]5c(c7ccc(Oc8ccc(-c9[nH]c%10cc(Cl)c(Cl)cc%10[n+]9C)cc8)cc7c5=NC5=NC(=N6)c6cc(Oc7ccc(-c8[nH]c9cc(Cl)c(Cl)cc9[n+]8C)cc7)ccc65)=NC4=N3)cc2)[nH]c2cc(Cl)c(Cl)cc21.[I-].[I-].[I-].[I-] [Compound 208]	–	–	9.31	2	8.79	1	–	20	78.4	–	–
C[n+]1c(-c2ccc(Oc3ccc4c(c3)C3=Nc5c6ccc(Oc7ccc(-c8[nH]c9cc(Cl)c(Cl)cc9[n+]8C)cc7)cc6c6[n]5[Cu][n]5c(c7ccc(Oc8ccc(-c9[nH]c%10cc(Cl)c(Cl)cc%10[n+]9C)cc8)cc7c5=NC5=NC(=N6)c6cc(Oc7ccc(-c8[nH]c9cc(Cl)c(Cl)cc9[n+]8C)cc7)ccc65)=NC4=N3)cc2)[nH]c2cc(Cl)c(Cl)cc21.[I-].[I-].[I-].[I-] [Compound 209]	–	–	9.31	10	8.79	2.5	–	20	80.4	–	–
C[n+]1c(-c2ccc(Oc3ccc4c(c3)C3=Nc5c6ccc(Oc7ccc(-c8[nH]c9cc(F)cc(Br)c9[n+]8C)cc7)cc6c6[n]5[Zn][n]5c(c7ccc(Oc8ccc(-c9[nH]c%10cc(F)cc(Br)c%10[n+]9C)cc8)cc7c5=NC5=NC(=N6)c6cc(Oc7ccc(-c8[nH]c9cc(F)cc(Br)c9[n+]8C)cc7)ccc65)=NC4=N3)cc2)[nH]c2cc(F)cc(Br)c21.[I-].[I-].[I-].[I-] [Compound 229]	–	–	9.25	0.5	8.79	10	–	10	39.4	–	–
C[n+]1c(-c2ccc(Oc3ccc4c(c3)C3=Nc5c6ccc(Oc7ccc(-c8[nH]c9cc(F)cc(Br)c9[n+]8C)cc7)cc6c6[n]5[Co][n]5c(c7ccc(Oc8ccc(-c9[nH]c%10cc(F)cc(Br)c%10[n+]9C)cc8)cc7c5=NC5=NC(=N6)c6cc(Oc7ccc(-c8[nH]c9cc(F)cc(Br)c9[n+]8C)cc7)ccc65)=NC4=N3)cc2)[nH]c2cc(F)cc(Br)c21.[I-].[I-].[I-].[I-] [Compound 230]	–	–	9.25	0.5	8.79	1	–	5	54.9	–	–
C[n+]1c(-c2ccc(Oc3ccc4c(c3)C3=Nc5c6ccc(Oc7ccc(-c8[nH]c9cc(F)cc(Br)c9[n+]8C)cc7)cc6c6[n]5[Cu][n]5c(c7ccc(Oc8ccc(-c9[nH]c%10cc(F)cc(Br)c%10[n+]9C)cc8)cc7c5=NC5=NC(=N6)c6cc(Oc7ccc(-c8[nH]c9cc(F)cc(Br)c9[n+]8C)cc7)ccc65)=NC4=N3)cc2)[nH]c2cc(F)cc(Br)c21.[I-].[I-].[I-].[I-] [Compound 231]	–	–	9.25	0.5	8.79	12.5	–	5	56.08	–	–
C[n+]1c(-c2ccc(Oc3ccc4c(c3)C3=Nc5c6ccc(Oc7ccc(-c8[nH]c9cc(Br)cc(Cl)c9[n+]8C)cc7)cc6c6[n]5[Zn][n]5c(c7ccc(Oc8ccc(-c9[nH]c%10cc(Br)cc(Cl)c%10[n+]9C)cc8)cc7c5=NC5=NC(=N6)c6cc(Oc7ccc(-c8[nH]c9cc(Br)cc(Cl)c9[n+]8C)cc7)ccc65)=NC4=N3)cc2)[nH]c2cc(Br)cc(Cl)c21.[I-].[I-].[I-].[I-] [Compound 233]	–	–	9.25	4	8.79	1	–	60	91.7	–	–
C[n+]1c(-c2ccc(Oc3ccc4c(c3)C3=Nc5c6ccc(Oc7ccc(-c8[nH]c9cc(Br)cc(Cl)c9[n+]8C)cc7)cc6c6[n]5[Co][n]5c(c7ccc(Oc8ccc(-c9[nH]c%10cc(Br)cc(Cl)c%10[n+]9C)cc8)cc7c5=NC5=NC(=N6)c6cc(Oc7ccc(-c8[nH]c9cc(Br)cc(Cl)c9[n+]8C)cc7)ccc65)=NC4=N3)cc2)[nH]c2cc(Br)cc(Cl)c21.[I-].[I-].[I-].[I-] [Compound 234]	–	–	9.25	0.5	8.79	2.5	–	60	90.4	–	–
